We go through twelve compounds from patent publication US9561228B2 (Celgene Avilomics Research, Inc., priority 2013, dated 2017).

Assay [1] relates to ERK1/2 phosphorylation of p90RSK in HT29 cells. Briefly: pRSK MSD Assay in HT29 cells. Type of assay: cell-based. As to conditions: Homo sapiens, HT-29, read-out: ERK1/ERK2 PRSK MSD HT29 EC50. The procedure, abridged:
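Serum-starved HT29 cells (0.1% FBS overnight) treated with test compound for 120 min at 37° C, then lysed with protease and phosphatase inhibitors. Phospho-p90RSK quantified by MSD sandwich immunoassay: RSK capture antibody, phospho-RSK detection antibody plus Sulfo-tagged antibody, electrochemiluminescence read.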

In assay [2] the test system is ERK1/2 phosphorylation of p90RSK in A375 cells. Briefly: Detection of total and phosphor-RSK by MSD ELISA (A375). Type of assay: cell-based. Particulars: Homo sapiens, A-375, read-out: ERK1/ERK2 PRSK A375 EC50. The procedure, abridged:
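A375 cells serum-starved overnight in DMEM/0.1% FBS, then treated 2 h at 37° C with compound (1000× DMSO dilutions into medium). Lysates captured on RSK antibody-coated MSD plates; phospho-RSK (Ser380) and total RSK detected with SulfoTag secondary antibodies by electrochemiluminescence.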

A value given as a limit tells only on which side of the number the result lay.

On to `C=CC(=O)Nc1cc(C)ccc1Nc1nc(NC2CCC(=O)NC2)ncc1C(F)(F)F` (racemic) [Compound I-368, Rac-N-(5-methyl-2-((2-((6-oxopiperidin-3-yl)amino)-5-(trifluoromethyl)pyrimidin-4-yl)amino)phenyl)acrylamide], for which the values for the EC50 in assay [1] and in assay [2] were 501 to 999 nM and above 1000 nM, respectively.
As for `C=CC(=O)Nc1cc(C)ccc1Nc1nc(Nc2cc(C(C)=O)ccc2C)ncc1C(F)(F)F` [Compound I-84, N-(2-((2-((5-Acetyl-2-methylphenyl)amino)-5-(trifluoromethyl)pyrimidin-4-yl)amino)-5-methylphenyl)acrylamide], in assay [1], the EC50 is below 100 nM.
On to `C=CC(=O)Nc1ccccc1Nc1nc(Nc2cc(OC)ncc2C)ncc1C(F)(F)F` [Compound I-85, N-(2-((2-((2-Methoxy-5-methylpyridin-4-yl)amino)-5-(trifluoromethyl)pyrimidin-4-yl)amino)phenyl)acrylamide], for which the EC50 in assay [1] and in assay [2] was below 100 nM in each case.
Consider `C=CC(=O)Nc1ccccc1Nc1nc(Nc2cc(OC)nc(N3CCN(C(C)=O)CC3)c2)ncc1C(F)(F)F` [Compound I-92], for which, in assay [2], the EC50 was below 100 nM.
Consider `C=CC(=O)Nc1cc(C)ccc1Nc1nc(Nc2cc(OC)nc(N3CCN(C(C)=O)CC3)c2)ncc1C(F)(F)F` [Compound I-93, N-(2-((2-((2-(4-Acetylpiperazin-1-yl)-6-methoxypyridin-4-yl)amino)-5-(trifluoromethyl)pyrimidin-4-yl)amino)-5-methylphenyl)acrylamide], for which the EC50 in assay [1] and in assay [2] was below 100 nM in each case.
In the case of `C=CC(=O)Nc1cc(C)ccc1Nc1nc(Nc2cc(OC)nc(OC)c2)ncc1C(F)(F)F` [Compound I-96], the EC50 in assay [2] was 101 to 500 nM.
Consider `C=CC(=O)Nc1cc(C)ccc1Nc1nc(Nc2cc(NCCOC)nc(OC)c2)ncc1C(F)(F)F` [Compound I-294, N-(2-((2-((2-methoxy-6-((2-methoxyethyl)amino)pyridin-4-yl)amino)-5-(trifluoromethyl)pyrimidin-4-yl)amino)-5-methylphenyl)acrylamide], for which the EC50 in assay [1] and in assay [2] was below 100 nM each time.
`C=CC(=O)Nc1cc(C)ccc1Nc1nc(Nc2cc(N[C@H]3CC[C@](C)(O)CC3)nc(OC)c2)ncc1C(F)(F)F` [Compound I-327, N-(2-((2-((2-((trans-4-hydroxy-4-methylcyclohexyl)amino)-6-methoxypyridin-4-yl)amino)-5-(trifluoromethyl)pyrimidin-4-yl)amino)-5-methylphenyl)acrylamide]: in assay [2], the EC50 was below 100 nM.
For `C=CC(=O)Nc1cc(C)ccc1Nc1nc(Nc2cc(P(C)(C)=O)ncc2C)ncc1C(F)(F)F` [Compound I-343, N-(2-((2-((2-(dimethylphosphoryl)-5-methylpyridin-4-yl)amino)-5-(trifluoromethyl)pyrimidin-4-yl)amino)-5-methylphenyl)acrylamide], the EC50 in assay [1] and in assay [2] was 101 to 500 nM each time.
As to `C=CC(=O)Nc1cc(C)ccc1Nc1nc(Nc2nc(OC)ncc2Cl)ncc1C(F)(F)F` [Compound I-344, N-(2-((2-((5-chloro-2-methoxypyrimidin-4-yl)amino)-5-(trifluoromethyl)pyrimidin-4-yl)amino)-5-methylphenyl)acrylamide], in assay [2], the EC50 was 101 to 500 nM.
Consider `C#CC(=O)Nc1cc(C)ccc1Nc1nc(Nc2cc(OC)ncc2C)ncc1C(F)(F)F` [Compound I-345, N-(2-((2-((2-methoxy-5-methylpyridin-4-yl)amino)-5-(trifluoromethyl)pyrimidin-4-yl)amino)-5-methylphenyl)propiolamide], for which the EC50 in assay [1] and in assay [2] was above 1000 nM throughout.
Consider `C=CC(=O)Nc1cc(C)ccc1Nc1nc(Nc2nc(OC)ncc2C#N)ncc1C(F)(F)F` [Compound I-346, N-(2-((2-((5-cyano-2-methoxypyrimidin-4-yl)amino)-5-(trifluoromethyl)pyrimidin-4-yl)amino)-5-methylphenyl)acrylamide], for which the EC50 in assay [1] and in assay [2] was 101 to 500 nM each time.
